Measured values reported in article PMC6639251, “Selective Kinase Inhibition Shows That Bur1 (Cdk9) Phosphorylates the Rpb1 Linker In Vivo” (Molecular and Cellular Biology, 2019).

Legend:
Kin28/Cdk7 (Kin28-IS) = target: T1, Kin28/Cdk7 (Kin28-IS) (Saccharomyces cerevisiae, UniProt P06242, V21C/L83G); test: immunoblot of Rpb1 CTD phosphorylation in yeast cells and in nuclear-extract elongation complexes; type: cell-based; conditions: covalent; engineered hole and cysteine in ATP pocket; 20 uM in cells 15 min 30 C; 250 nM in nuclear extract
T1 construct: allele integrated at the natural chromosomal locus; in living yeast and nuclear extract, part of TFIIH; HA-tagged plasmid form (35 kDa) only for expression test
T1 sequence (P06242 1-306 V21C/L83G): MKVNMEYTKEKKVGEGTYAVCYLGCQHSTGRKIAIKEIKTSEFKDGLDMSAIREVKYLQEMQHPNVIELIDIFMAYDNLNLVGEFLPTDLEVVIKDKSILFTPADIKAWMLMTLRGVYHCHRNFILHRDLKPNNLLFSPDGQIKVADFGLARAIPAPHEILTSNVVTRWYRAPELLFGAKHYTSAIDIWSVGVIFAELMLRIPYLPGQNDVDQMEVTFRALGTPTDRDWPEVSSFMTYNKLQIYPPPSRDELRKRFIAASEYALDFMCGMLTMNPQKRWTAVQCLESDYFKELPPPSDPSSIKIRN

Ctk1/Cdk12 (Ctk1-IS) = target: T2, Ctk1/Cdk12 (Ctk1-IS) (Saccharomyces cerevisiae, UniProt Q03957, V197C/F260G); test: immunoblot of Rpb1 CTD Ser2P in yeast cells and in nuclear-extract elongation complexes; type: cell-based; conditions: covalent; engineered hole and cysteine in ATP pocket; 20 uM in cells 15 min 30 C; 250 nM in nuclear extract
T2 construct: allele integrated at the natural chromosomal locus; in living yeast and nuclear extract; HA3-tagged plasmid form (61 kDa) only for expression test
T2 sequence (Q03957 1-528 V197C/F260G): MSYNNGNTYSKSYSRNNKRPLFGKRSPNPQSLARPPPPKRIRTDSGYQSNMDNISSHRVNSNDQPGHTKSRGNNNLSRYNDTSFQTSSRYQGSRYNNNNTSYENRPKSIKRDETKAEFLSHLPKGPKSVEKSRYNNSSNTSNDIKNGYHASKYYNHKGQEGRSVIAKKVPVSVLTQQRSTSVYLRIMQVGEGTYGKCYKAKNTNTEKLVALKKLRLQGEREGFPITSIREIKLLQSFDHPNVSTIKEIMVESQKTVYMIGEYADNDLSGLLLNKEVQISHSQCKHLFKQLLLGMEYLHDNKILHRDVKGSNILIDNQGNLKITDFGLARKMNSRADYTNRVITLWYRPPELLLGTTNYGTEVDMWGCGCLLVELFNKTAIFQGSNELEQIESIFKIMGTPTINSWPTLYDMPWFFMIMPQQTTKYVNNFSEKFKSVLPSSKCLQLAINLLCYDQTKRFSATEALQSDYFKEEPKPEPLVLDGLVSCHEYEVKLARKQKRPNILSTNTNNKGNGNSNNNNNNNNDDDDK

## Cc1ccc(-c2c(C(=O)CCl)n(CCCO)c3ncnc(N)c23)cc1 [CMK]
Kin28/Cdk7 (Kin28-IS)
  immunoblot of Rpb1 CTD phosphorylation in yeast cells and in nuclear-extract elo: treatment of the Kin28-IS strain with CMK led to a significant drop in CTD Ser5P
Ctk1/Cdk12 (Ctk1-IS)
  immunoblot of Rpb1 CTD Ser2P in yeast cells and in nuclear-extract elongation co: 15-min CMK treatment of Ctk1-IS cells caused very strong loss of Ser2P
